Test results: patent US20100113436A1, “DISPIRO TETRAOXANE COMPOUNDS AND THEIR USE IN THE TREATMENT OF MALARIA AND/OR CANCER” (priority 2006, published 2010)
In brackets after ≈: the same amount, converted by molar mass. Like-named read-outs stand apart in the source and are kept apart here.

What was measured:
[1] = system: Plasmodium falciparum TM4; assay: In vitro analysis versus strains of Plasmodium falciparum: TM4; format: cell-based; details: TM4 strain, read-out: IC50
[2] = system: Plasmodium falciparum GC03; assay: In vitro analysis versus strains of Plasmodium falciparum: GC03; format: cell-based; details: GC03 strain, read-out: IC50
[3] = system: Plasmodium falciparum DD2; assay: In vitro analysis versus strains of Plasmodium falciparum: DD2; format: cell-based; details: DD2 strain, read-out: IC50
Vero Kidney = assay: Cellular cytotoxicity screen, Resazurin reduction; format: cell-based, African green monkey, Cercopithecus aethiops
Description: (§1) Values represent Tox 50 in μM. Cytotoxicity measured by Resazurin reduction.
(§2) Single full dose response curves generated using 10 independent drug concentrations. The 100 therapeutic index (TI) is the ration of the TOX 50 to the IC50 for the specific compound against the 3D7 P. falciparum isolate. The primary hepatocytes have demonstrable drug metabolising activity. The tetraoxane derivatives are remarkably non-toxic in these screens with in vitro TIs of between 5000 to 17000!.

P. berghei ANKA [4] = assay: In vivo dose response screening against P. berghei ANKA; design: species or system mice; details: Plasmodium berghei; P. berghei ANKA infected mice; Table 9
Protocol: Compound 29c, 29h and 291 were then subjected to dose response experiment against the P. berghei ANKA and the results are summarized in Table 7 below.

[5] = system: 3D7 strain of Plasmodium falciparum; assay: In vitro antimalarial activity, 48-h [3H]-hypoxanthine incorporation assay; format: cell-based
Protocol: The 3D7 strain of Plasmodium falciparum was used in this study. This strain is known to be […] Parasites were maintained in continuous culture using the method of Jensen and Trager^4. […] Stock drug solutions were prepared in 100% dimethylsulphoxide (DMSO) and diluted to the appropriate concentration using complete medium. Assays were performed in sterile 96-well microlitre plates, each plate contained 200 μl of parasite culture (2% parasitemia, 0.5% haematocrit) with or without 10 μl drug dilutions. Each drug was tested in triplicate and parasite growth compared to control wells (which constituted 100% parasite growth). […] IC50 values were calculated by interpolation of the probit transformation of the log dose-response curve.

[6] = system: Plasmodium falciparum HB3; assay: In vitro analysis versus strains of Plasmodium falciparum: HB3; format: cell-based; details: HB3 strain, read-out: IC50
Plasmodium falciparum K1 = assay: In vitro analysis versus strains of Plasmodium falciparum: K1; format: cell-based; details: K1 strain
[7] = system: MRC-5 Embryonal lung, diploid; assay: Cellular cytotoxicity screen, Resazurin reduction; format: cell-based, Human
Description: as §1, §2

P. berghei ANKA [8] = assay: In vivo dose response screening against P. berghei ANKA; details: P. berghei ANKA infected mice; Table 9; sigmoidal curve calculation
[9] = system: HepG2 Human hepatocyte carcinoma; assay: Cellular cytotoxicity screen, Resazurin reduction; format: cell-based; details: Hep2G
Description: as §1, §2

[10] = system: Plasmodium falciparum V1S; assay: microbe, parasite or virus in culture; format: cell-based
[11] = system: Plasmodium falciparum PH3; assay: In vitro analysis versus strains of Plasmodium falciparum: PH3; format: cell-based; details: PH3 strain, read-out: IC50
[12] = system: Salmonella typhimurium NM2009; assay: Salmonella typhimurium SOS/umu genotoxicity assay
Description: (§3) This assay is based on the ability of DNA damaging agents to induce the expression of the umu operon. The Salmonella strains have a plasmid pSK1002 which carries an umuC-lacZ fused gene that produces a hybrid protein with β-galactosidase activity and whose expression is controlled by the umu regulatory region.

[13] = system: Salmonella typhimurium TA1535/pSK1002; assay: Salmonella typhimurium SOS/umu genotoxicity assay
Description: as §3

[14] = system: H9c2(2-1) Myocardium, heart; assay: Cellular cytotoxicity screen, Resazurin reduction; format: cell-based, rat; details: H9c(2-1)
Description: as §1, §2

[15] = system: L6 Sketal muscle myoblast; assay: Cellular cytotoxicity screen, Resazurin reduction; format: cell-based, rat
Description: as §1, §2

[16] = Timed iron degradation stability, FeBr2 in THF; format: physicochemical; details: ferrous bromide/THF
Description: The resulting residue was purified by flash column chromatography and the % recovery of starting endoperoxide calculated (Table 15).

[17] = Stability to other iron salts (FeSO4•7H2O, FeCl2•4H2O); format: physicochemical; details: further iron salts
[18] = ratio TOX 50 to IC50 against 3D7 P. falciparum

CCS(=O)(=O)N1CCC2(CC1)OOC1(OO2)C2CC3CC(C2)CC1C3 [Tetraoxane 39b]
IC50 [1]: 2.4 nM | IC50 [2]: 3 nM | solubility (physchem): 50 µM (≈ 18.7 µg/mL) | IC50 [3]: 3 nM | Tox 50 (Vero Kidney): >50 µM | Theraputic Index (TI) (Vero Kidney; [18]): >9090 | ED50 (P. berghei ANKA [4]): 6.61 mg/kg | IC50 ([5]; 3D7, read-out: Mean IC50): 5.55 nM | IC50 [6]: 3.8 nM | IC50 (Plasmodium falciparum K1): 3 nM | Tox 50 [7]: >50 µM | Theraputic Index (TI) [7, 18]: >9090 | ED90 (P. berghei ANKA [8]): 35.48 mg/kg | Tox 50 [9]: >50 µM | Theraputic Index (TI) [9, 18]: >9090 | IC50 [10]: 2.7 nM | IC50 [11]: 1.9 nM | MCE NM2009 (Maximum Co w/o effects on bacteria growth or beta-galactosidase production) ([12]; Salmonella typhimurium): 50 µM | Max. Fold Increase ([12]; −S9): 1.07 ± 0.03 fold | Potential genotox ([12]; −S9): NEG | MCE TA1535 (Maximum Co w/o effects on bacteria growth or β-galactosidase production) ([13]; Salmonella typhimurium): 50 µM | genotoxicity result in SOS/umu assay ([13]; both strains TA1535/pSK1002 and NM2009, highest concentration tested 50 μM, absence and presence of S-9 mix): Negative | Max. Fold Increase ([13]; −S9): 1.03 ± 0.07 fold | Potential genotox ([13]; −S9): NEG | Tox 50 [14]: >50 µM | Theraputic Index (TI) [14, 18]: >9090 | Tox 50 [15]: 31 µM | Theraputic Index (TI) [15, 18]: 5636

O=S(=O)(c1ccccc1)N1CCC2(CC1)OOC1(OO2)C2CC3CC(C2)CC1C3 [Tetraoxane 39f]
degradation ([16]; after 4 h): 10% | turnover ([16]; after 48 h): 31% | IC50 ([5]; 3D7, sulfonamide dispiro 1,2,4,5-tetraoxanes, Table 8, read-out: Mean IC50): 8.1 nM | degradation by iron salts known to degrade artemisinin and arteflene [17]: ineffective at degrading
